Results published in US8435976B2, “4-substituted pyridin-3-yl-carboxamide compounds and methods of use” (F. Hoffmann-La Roche, priority 2009, dated 2013).

Assays:
[1] = system: EOL-1; test: EOL-1 cell assay; type: cell-based; settings: Homo sapiens, EOL1; Table 3
[2] = molecular target: BaF3 PIM2 cells (Homo sapiens, UniProt Q9P1W9); test: BaF3 PIM2 cell proliferation (Cell Titer Glo); type: cell-based; settings: Table 3; read-out: BaF3-Pim2
Method in brief: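 BaF3 cells stably transfected with PIM2 were cultured in RPMI with 10% FBS, 2 mM L-Glutamine and 250 μg/mL G418, then plated at 5 k/well in 45 μL/well of a 384-well plate. Test compound was added at 5 μL/well, cells incubated overnight, and viability measured by luminescence after 30 minutes with Cell Titer Glo (50 μL/well).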

[3] = system: multiple myeloma cell line KMS11; test: Cell Titer Glo proliferation and survival assay, KMS11 and other multiple myeloma cell lines; type: cell-based; settings: Homo sapiens, KMS-11; single agent; ten multiple myeloma cell lines tested; read-out: IC50 against myeloma cell lines, single agent
Excerpt: The results obtained here are representative of a total of ten multiple myeloma cell lines tested.

[4] = system: MM1.S cells; test: MM1.S cell proliferation, 72 hours (Cell Titer Glo); type: cell-based; settings: Homo sapiens, Table 3, read-out: MM1.s
Method in brief: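 BaF3 parental cells (2 k/well, with 2 ng/mL mIL-3) were treated overnight, and MM1.S cells (10 k/well) were treated for 72 h at 37 °C. Viability was read by CellTiter-Glo luminescence. IC50/EC50 values were calculated from the luminescence data.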

[5] = system: BaF3 parental cells; test: BaF3 parental cell proliferation (Cell Titer Glo); type: cell-based; settings: Mus musculus, Table 3
Method: BaF3 parental line was obtained from the DSMZ repository. BaF3 lines transfected with PIM1 or PIM2 were generated. Mouse IL-3 was purchased from R&D Systems. G418 was purchased from Clontech. Media for BaF3 parental line contained RPMI, 10% FBS, 2 mM L-Glutamine, 2 ng/mL mIL-3. Media for BaF3 PIM1 & 2 lines contained RPMI, 10% FBS, 2 mM L-Glutamine, […]. Media for MM1.S line contained RPMI, 10% FBS, 2 mM L-Glutamine.
BaF3 parental cells, BaF3 PIM1 cells, BaF3 PIM2 cells, and MM1.S cells were seeded at 2 k/well, 5 k/well, 5 k/well, and 10 k/well respectively, in a 384-well plate, at 45 μL/well. Test compound was added at 5 μL/well. BaF3 cells (parental and transfected) were incubated overnight, while MM1.S cells were incubated for 72 hours at 37° C., 5% CO2. Cell Titer Glo Reagent (Promega) was added at 50 μL/well, the plates were incubated for 30 minutes, and their luminescence read on an HT Analyst. IC50/EC50 values for the test compound were calculated.

[6] = molecular target: BaF3 PIM1 cells (Homo sapiens, UniProt P11309); test: BaF3 PIM1 cell proliferation (Cell Titer Glo); type: cell-based; settings: Table 3; read-out: BaF3-Pim1
Sequence of BaF3 PIM1 cells (P11309 whole entry, change not shown): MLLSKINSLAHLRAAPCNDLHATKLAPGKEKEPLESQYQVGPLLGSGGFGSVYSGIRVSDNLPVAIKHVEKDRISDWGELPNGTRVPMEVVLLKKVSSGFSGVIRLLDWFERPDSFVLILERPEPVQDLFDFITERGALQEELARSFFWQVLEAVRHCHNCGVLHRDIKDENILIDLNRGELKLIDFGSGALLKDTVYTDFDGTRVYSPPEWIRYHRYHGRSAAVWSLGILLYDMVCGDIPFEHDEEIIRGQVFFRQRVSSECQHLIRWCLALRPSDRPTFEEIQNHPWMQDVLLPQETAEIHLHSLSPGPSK

[7] = system: bone marrow aspirate samples from multiple myeloma patients; test: Primary cancer cell isolates from bone marrow aspirates, apoptosis; type: cell-based, human; settings: 0.3 or 1.0 micromolar; two of four cases
Method: Shown in FIG. 2 are a summary of Combination Index values for Compound 3 in combination with different agents. The values shown were calculated at the ED50 of the dose response curves which were similar in nature to those exemplified in FIG. 1. Each dot in the plot represents the test results obtained with a different multiple myeloma cell line with a different combination of test agents, including Compound 3 plus a second agent as labeled on the abscissa. The horizontal line on the plot itself indicates the mean of all CI values for a given test agent. Combinations of Compound 3 with clinical standard of care chemotherapeutic agents including dexamethasone, lenalidomide, bortezomib, and melphalan produced variable results wherein CI values between about 0.1 and about 1 were obtained, with means generally greater than about 0.5. Compared to these clinically active agents, unexpectedly uniform and unexpectedly potent combination test results were obtained for Compound 3 in combination with Formula A, in which the majority of calculated CI values were less than about 0.2 and the mean across all cancer cell lines tested was about 0.2. In addition to these findings, bone marrow aspirate samples from multiple myeloma patients […] to test Formula A and Compound 3 singly and in combination on these primary cancer cell isolates.

[8] = system: RPMI 8226.x1 multiple myeloma xenografts; test: RPMI 8226.x1 multiple myeloma xenograft; type: in vivo, SCID Beige mice; settings: Formula A 75 mg/kg po qd x21, day 27
Method: (§1) The efficacy of the combinations of the invention may be measured in vivo by implanting allografts or xenografts of cancer cells in rodents and treating the tumor-bearing animals with the combinations. Variable results are to be expected depending on the cell line, the presence or absence of certain mutations in the tumor cells, the sequence of administration of a formula I compound and chemotherapeutic agent, dosing regimen, and other factors. Subject mice were treated with drug(s) or control (Vehicle) and monitored over several weeks or more to measure the time to tumor doubling, log cell kill, and tumor inhibition.
Dosing of all cohorts commenced on Day 0 when the mean tumor volume of all cohorts was between about 100 to 200 cubic millimeters.

[9] = system: syngeneic A20 lymphoma tumors; test: Syngeneic A20 lymphoma tumor model; type: in vivo, Balb/c mice; settings: Compound 3 25 and 50 mg/kg or Formula A 75 mg/kg po qd x21
Method: The efficacy of the combinations of the invention may be measured in vivo by implanting allografts or xenografts of cancer cells in rodents and treating the tumor-bearing animals with the combinations. […] Subject mice were treated with drug(s) or control (Vehicle) and monitored over several weeks or more to measure the time to tumor doubling, log cell kill, and tumor inhibition.
Dosing of all cohorts commenced on Day 0 when the mean tumor volume of all cohorts was between […]. […] At the conclusion of this study, femurs were collected and histological analysis of the bone marrow was conducted, and peripheral blood was collected for determination of blood cell counts.

[10] = system: MM1.s multiple myeloma xenografts; test: MM1.s multiple myeloma xenograft; type: in vivo, SCID mice; settings: Formula A 75 mg/kg po qd, day 18; compared with Compound 3 50 mg/kg
Method: as §1
Dosing of all cohorts commenced on Day 0 when the mean tumor volume of all cohorts was between about 200 to 300 cubic millimeters. […] Formula A was tested at as a single agent at a single dose level of 75 mg/kg for which a lesser TGI was obtained at day 18.

[11] = system: multiple myeloma cell line MM.1S; test: MM.1S 3 day proliferation assay, single agents and combinations (Cell-Titer Glo); type: cell-based; settings: FIG. 1
Method: The in vitro potency of the combinations of formula I compounds with chemotherapeutic agents was measured by the cell proliferation assay of Example 11 and the results are compiled in Example iii. The CellTiter-Glo® Luminescent Cell Viability Assay (commercially available from Promega Corp., Madison, Wis.) is a homogeneous assay method based on the recombinant expression of Coleoptera luciferase (U.S. Pat. No. 5,583,024; U.S. Pat. No. 5,674,713; U.S. Pat. No. 5,700,670) and determines the number of viable cells in culture based on quantitation of the ATP present, an indicator of metabolically active cells (Crouch et al (1993) J. Immunol. Meth. 160:81-88; U.S. Pat. No. 6,602,677). The CellTiter-Glo® Assay was conducted in 96 or 384 well format, making it amenable to automated high-throughput screening (HTS) (Cree et al (1995) AntiCancer Drugs 6:398-404). The homogeneous assay procedure involves adding the single reagent (CellTiter-Glo® Reagent) directly to cells cultured in serum-supplemented medium. Cell washing, removal of medium and multiple pipetting steps are not required. The system detects as few as 15 cells/well in a 384-well format in 10 minutes after adding reagent and mixing.
The homogeneous “add-mix-measure” format results in cell lysis and generation of a luminescent signal proportional to the amount of ATP present. […] Viable cells are reflected in relative luminescence units (RLU). […] Data can be recorded by luminometer or CCD camera imaging device. The luminescence output is presented as relative light units (RLU), measured over time.
The combination index (CI) score is calculated by the Chou and Talalay method (Chou, T. and Talalay, P. (1984) Adv. Enzyme Regul. 22:27-55). […] The strength of synergy is assessed according to Chou and Talalay. […]
The in vitro cell survival and proliferation assay (Cell-Titer Glo, Promega) measured viable cells over varying inhibitor concentrations (10^−3 to 10 μMolar, Relative Units, wherein a Relative Unit equals 0.3 micromolar for Compound 3, 0.3 micromolar for Formula A, and 0.1 micromolar for Formula B). […]

[12] = system: prostate cancer cell line PC3; test: Cell Titer Glo proliferation and survival assay, PC3; type: cell-based; settings: PC3, FIG. 5
Excerpt: The results obtained here are representative of a subset of prostate cell lines tested.

Sequence of BaF3 PIM2 cells (Q9P1W9 whole entry, change not shown): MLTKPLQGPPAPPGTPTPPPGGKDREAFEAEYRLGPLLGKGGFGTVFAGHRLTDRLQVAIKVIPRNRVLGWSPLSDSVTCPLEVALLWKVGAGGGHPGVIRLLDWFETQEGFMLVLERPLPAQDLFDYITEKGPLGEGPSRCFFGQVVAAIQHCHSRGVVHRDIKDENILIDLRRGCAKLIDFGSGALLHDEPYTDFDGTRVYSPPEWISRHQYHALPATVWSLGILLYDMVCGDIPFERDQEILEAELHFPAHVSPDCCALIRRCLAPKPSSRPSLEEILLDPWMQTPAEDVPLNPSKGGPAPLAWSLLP

IC50 [1] [nM] | GI50 [2] [nM] | EC50 [4] [nM] | GI50 [6] [nM] | SMILES | IC50 [3] [nM] | IC50 [5] [nM] | activity on primary cancer cell isolates [7] | tumor growth inhibition (TGI) [8] [%] | effect on tumor growth, single agents [9] | tumor growth inhibition (TGI), in words [10] | lowest level reached by dose-response curve, of control value [11] | IC50 [12] [nM]
400 | > 20000 | > 20000 | 400 | O=C(Nc1c[nH]c2ncccc12)c1cnn2ccc(NCCc3ccccc3)nc12 [Compound PIMi, 5-(phenethylamino)-N-(1H-pyrrolo[2,3-b]pyridine-3-yl)pyrazolo[1,5-a]pyrimidine-3-carboxamide, reference compound] | > 5000 | 12000 |  |  |  |  |  | 
 |  |  |  | CS(=O)(=O)N1CCN(Cc2cc3nc(-c4cccc5[nH]ncc45)nc(N4CCOCC4)c3s2)CC1 [Formula A, 4-(2-(1H-indazol-4-yl)-6-((4-(methylsulfonyl)piperazin-1-yl)methyl)thieno[3,2-d]pyrimidin-4-yl)morpholine, reference compound] |  |  | only limited single agent activity | 40 | no significant effect on tumor growth | lesser TGI | about 0% | ~300
 |  |  |  | Cc1c(CN2CCN(C(=O)[C@H](C)O)CC2)sc2c(N3CCOCC3)nc(-c3cnc(N)nc3)nc12 [Formula B, (S)-1-(4-((2-(2-aminopyrimidin-5-yl)-7-methyl-4-morpholinothieno[3,2-d]pyrimidin-6-yl)methyl)piperazin-1-yl)-2-hydroxypropan-1-one] |  |  |  |  |  |  | about 0% | 
